Data: patent US12297204B2, “5-(substitutedphenyl)-7-thioxo-7,8-dihydropyrimido[4,5-d]pyrimidine-2,4(1H,3H)-dione analogues as antibacterial agents” (KING FAISAL UNIVERSITY, priority 2023, dated 2025)
In brackets after ≈: the same amount, converted by molar mass.

How the values were obtained:
E. coli = assay: Antimicrobial activity MIC, E. coli; format: cell-based, Escherichia coli (MTCC 443)
A. flavus = assay: Antimicrobial activity MIC, A. flavus; format: cell-based, Aspergillus flavus
T. atroviridae = assay: Antimicrobial activity MIC, T. atroviridae; format: cell-based, Trichoderma atroviride
P. citrinum = assay: Antimicrobial activity MIC, P. citrinum; format: cell-based, Penicillium citrinum
C. albicans = assay: Antimicrobial activity MIC, C. albicans; format: cell-based, Candida albicans
S. aureus = assay: Antimicrobial activity MIC, S. aureus; format: cell-based, Staphylococcus aureus (MTCC 9660)
B. subtilis = assay: Antimicrobial activity MIC, B. subtilis; format: cell-based, Bacillus subtilis (MTCC 441)
P. aeruginosa = assay: Antimicrobial activity MIC, P. aeruginosa; format: cell-based, Pseudomonas aeruginosa (MTCC 424)

Molecule	MIC (E. coli; E. coli) [µM]	MIC (A. flavus; A. flavus) [µM]	MIC (T. atroviridae; T. atroviridae) [µM]	MIC (P. citrinum; P. citrinum) [µM]	MIC (C. albicans; C. albicans) [µM]	MIC (S. aureus; S. aureus) [µM]	MIC (B. subtilis; B. subtilis) [µM]	MIC (P. aeruginosa; P. aeruginosa) [µM]	MIC (E. coli; Escherichia coli) [µM]	MIC (A. flavus; Aspergillus flavus) [µM]	MIC (T. atroviridae; Trichoderma atroviride) [µM]	MIC (P. citrinum; Penicillium citrinum) [µM]	MIC (C. albicans; Candida albicans) [µM]	MIC (S. aureus; Staphylococcus aureus) [µM]	MIC (B. subtilis; Bacillus subtilis) [µM]	MIC (P. aeruginosa; Pseudomonas aeruginosa) [µM]
5-(4-(Benzyloxy)phenyl)-7-thioxo-7,8-dihydropyrimido[4,5-d]pyrimidine-2,4(1H,3H)-dione [Compound 4b]	0.17	0.01	0.01	0.01	0.005	0.34	0.17	0.17								
O=c1[nH]c(=O)c2c(-c3cccc(OCc4ccccc4)c3)nc(=S)[nH]c2[nH]1 [Compound 4a, 5-(3-(Benzyloxy)phenyl)-7-thioxo-7,8-dihydropyrimido[4,5-d]pyrimidine-2,4(1H,3H)-dione]									0.04 (≈ 0.0151 µg/mL)	0.17 (≈ 0.0643 µg/mL)	0.17 (≈ 0.0643 µg/mL)	0.17 (≈ 0.0643 µg/mL)	0.08 (≈ 0.0303 µg/mL)	0.02 (≈ 0.00757 µg/mL)	0.01 (≈ 0.00378 µg/mL)	0.04 (≈ 0.0151 µg/mL)
COc1ccc(-c2nc(=S)[nH]c3[nH]c(=O)[nH]c(=O)c23)cc1O [Compound 4c, 5-(3-Hydroxy-4-methoxyphenyl)-7-thioxo-7,8-dihydropyrimido[4,5-d]pyrimidine-2,4(1H,3H)-dione]									0.2 (≈ 0.0637 µg/mL)	0.05 (≈ 0.0159 µg/mL)	0.05 (≈ 0.0159 µg/mL)	0.05 (≈ 0.0159 µg/mL)	0.03 (≈ 0.00955 µg/mL)	0.4 (≈ 0.127 µg/mL)	0.2 (≈ 0.0637 µg/mL)	0.2 (≈ 0.0637 µg/mL)
COc1ccc(-c2nc(=S)[nH]c3c2c(=O)n(C)c(=O)n3C)cc1O [Compound 4d, 5-(3-Hydroxy-4-methoxyphenyl)-1,3-dimethyl-7-thioxo-7,8-dihydropyrimido[4,5-d]pyrimid-ine-2,4(1H,3H)-dione]									0.012 (≈ 0.00416 µg/mL)	0.37 (≈ 0.128 µg/mL)	0.37 (≈ 0.128 µg/mL)	0.37 (≈ 0.128 µg/mL)	0.18 (≈ 0.0623 µg/mL)	0.012 (≈ 0.00416 µg/mL)	0.006 (≈ 0.00208 µg/mL)	0.012 (≈ 0.00416 µg/mL)
